17 compounds from US5393755A, “Polycyclic guanine derivatives” (priority 1992, dated 1995) can be followed below.

The test system of test [1] is spontaneously hypertensive rats (SHR). The test is described as follows: Antihypertensive Activity in Rats (conscious SHR, oral). It counts as in vivo, rat (spontaneously hypertensive. The following applies: fasted SHR males. An excerpt: The present compounds are useful in inhibiting the phosphodiesterase enzymes. These phosphodiesterase enzymes are known to hydrolyze cGMP in smooth muscle. High levels of cGMP are associated with the relaxation of vascular smooth muscle, with a consequent subsequent reduction in blood pressure. Thus, it is believed that by inhibiting these phosphodiesterase enzymes, cGMP levels in muscle will be either maintained or increased with a subsequent reduction in blood pressure. In vivo antihypertensive activity is determined orally in spontaneously hypertensive rats (SHR). The ability of the compounds of the present invention to lower blood pressure can be assessed in vivo in conscious spontaneously hypertensive rats (SHR). SHR males are purchased from Taconic Farms, Germantown, N.Y. and are approximately 16-18 weeks old when anesthetized with ether. The caudal (ventral tail) artery is cannulated with polyethylene tubing (PE50) and blood pressure and heart rate are recorded as described by Baum, T. et. al, J. Cardiovasc. Pharmacol. Vol 5, pp. 655-667, (1983). Rats are placed into plastic cylindrical cages where they rapidly recover consciousness. Blood pressure and heart rate are allowed to stabilize for approximately 90 minutes prior to compound administration. Compounds are administered orally as solutions or suspensions in 0.4% aqueous methylcellulose vehicle via a feeding needle. […] Activity is expressed as the fall in mean blood pressure (MBP) in millimeters of mercury (mm Hg). Compound-induced changes are compared with the changes in an appropriate placebo group.

Test [2] addresses T1, calcium-calmodulin dependent phosphodiesterase (CaM-PDE) (Bos taurus, UniProt P14100).
T1 construct: partially pure enzyme obtained from bovine aorta homogenates; from tissue; host or cells: bovine aorta homogenates
The test is described as follows: Phosphodiesterase Inhibition In Vitro: CaM-PDE. It counts as biochemical, bovine (aorta). The following applies: 1 μM 3H-cGMP substrate, pH 7.5, 25 minutes, room temperature, with calmodulin and CaCl2. How it is done: (§1) Compounds are evaluated for inhibition of two phosphodiesterase enzymes which hydrolyze cyclic guanosine monophosphate (cGMP). The first enzyme, calcium-calmodulin dependent phosphodiesterase (CaM-PDE), is a partially pure enzyme obtained from bovine aorta homogenates and purified by DEAE-cellulose and calmodulin-affinity chromatography. The enzyme is activated several fold by Ca-calmodulin and is selective for cGMP, although it will also hydrolyze cAMP. […] Bovine aorta homogenates and primary cultures of bovine aortic endothelial and vascular smooth muscle cells contain an enzyme with properties very similar to the lung isozyme.
(§2) The enzyme assay is performed using a Biomek Automated Pipetting Station. Compounds are dissolved in distilled water or DMSO and diluted with 10% DMSO.
(§3) Assays contain the following components:
(§4) 50 mM Tris-HCl, pH 7.5, 5 mM magnesium chloride
(§5) 0.5 mg/ml snake venom alkaline phosphatase
0.1 μM Calmodulin and 1 mM CaCl2 (for CaM-PDE only)
(§6) Assays are initiated by addition of enzyme and stopped by addition of 10 mM isobutylmethylxanthine, a general phosphodiesterase inhibitor. Assays are performed for 25 minutes at room temperature to achieve 5-10% hydrolysis of substrate. The negatively charged substrates are then separated from guanosine by binding to an anion-exchange resin (AG1-X8) and centrifugation or filtration, and the product is quantitated by scintillation counting in counts per minute (cpm) of the remaining soluble material. Percent inhibition is calculated as follows:
(§7) % Inhibition=100-[(cpm compound-blank)/(cpm control-blank)×100]
(§8) Activity is expresssed as the IC50 value, i.e. the concentration required to inhibit activity of enzyme by 50 per cent.

For test [3], the target named is cGMP phosphodiesterase (cGMP-PDE) (Bos taurus, UniProt Q28156). In words: biochemical. Also on record: species or system bovine (lung). The following applies: 1 μM 3H-cGMP substrate, pH 7.5, 25 minutes, room temperature. How it is done:
as §1, §2, §3, §4, §5, §6, §7, §8

Broadly, the IC50 is the midpoint of a concentration-inhibition curve. `CN1C(=O)c2c(ncn2Cc2ccccc2)N2C1=N[C@@H]1CCC[C@@H]12` (relative stereo) [Example 1, cis-5,6a,7,8,9,9a-Hexahydro-5-methyl-3-(phenylmethyl)cyclopent[4,5]imidazo[2,1-b]purin-4-one]: the “SHR Antihypertensive Fall in MBP” value in test [1] (Dose 25 mpk) worked out at 30 mmHg. For the same compound, the IC50 in test [2] worked out at 300 nM; in test [3] it was 400 nM.

In the case of `CN1C(=O)c2c(ncn2Cc2ccccc2)N2C1=N[C@@H]1CCCC[C@@H]12` (relative stereo) [Example 3, cis-6a,7,8,9,10,10a-Hexahydro-5-methyl-3-(phenylmethyl)-3H-benzimidazo[2,1-b]purin-4(5H)-one], the “SHR Antihypertensive Fall in MBP” value in test [1] (Dose 25 mpk) was found to be 22 mmHg. Also, the IC50 is 100 nM in test [2] and 1400 nM in test [3].

For the compound `Cc1nc2c(n1Cc1ccccc1)C(=O)N(C)C1=N[C@@H]3CCC[C@@H]3N12` (relative stereo) [Example 9, cis-5,6a,7,8,9,9a-Hexahydro-2,5-dimethyl-3-(phenylmethyl)cyclopent[4,5]imidazo[2,1-b]purin-4-(3H)-one], the “SHR Antihypertensive Fall in MBP” value in test [1] (Dose 25 mpk) is 36 mmHg. In test [2], the IC50 is 600 nM.

Take `Cc1nc2c(n1Cc1ccccc1)C(=O)N(C)C1=N[C@@H]3CCCC[C@@H]3N12` (relative stereo) [Example 12, cis-6a,7,8,9,10,10a-Hexahydro-2,5-dimethyl-3-(phenylmethyl)-3H-benzimidazo[2,1-b]purin-4(5H)-one]: the “SHR Antihypertensive Fall in MBP” value in test [1] (Dose 25 mpk) was 38 mmHg. Also, the IC50 in test [2] and in test [3] was 200 nM each time.

For the compound `Cc1nc2c(n1Cc1ccccc1)C(=O)N(C)C1=N[C@@H]3CCCCC[C@@H]3N12` (relative stereo) [Example 14, cis-5,6a,7,8,9,9a-Hexahydro-2,5-dimethyl-3-(phenylmethyl)cyclohept[6,7]imidazo[2,1-b]purin-4(3H)-one], the “SHR Antihypertensive Fall in MBP” value in test [1] (Dose 25 mpk) was 20 mmHg. In addition, the IC50 is 300 nM in test [2] and 900 nM in test [3].

Consider `CCc1nc2c(n1Cc1ccccc1)C(=O)N(C)C1=N[C@@H]3CCCC[C@@H]3N12` (relative stereo) [Example 16, cis-6a,7,8,9,10,10a-Hexahydro-5-methyl-2-ethyl-3-(phenylmethyl)-3H-benzimidazo[2,1-b]purin-4(5H)-one], for which, in test [1] (Dose 25 mpk), the “SHR Antihypertensive Fall in MBP” value is given as 23 mmHg. The IC50 in test [2] is 100 nM; in test [3], 3000 nM.

Turning to `CN1C(=S)c2c(ncn2Cc2ccccc2)N2C1=N[C@@H]1CCC[C@@H]12` (relative stereo) [Example 20, cis-5,6a,7,8,9,9a-Hexahydro-5-methyl-3-(phenylmethyl)cyclopenta[4,5]imidazo[2,1-b]purin-4(3H)-thione], in test [1] (Dose 25 mpk), the “SHR Antihypertensive Fall in MBP” value stood at 6 mmHg. Moreover, the concentration for half-maximal inhibition (IC50) in test [2] was 40 nM; in test [3], 400 nM.

As for `CN1C(=O)c2c(ncn2Cc2ccc(Cl)cc2)N2C1=N[C@@H]1CCC[C@@H]12` (relative stereo) [Example 21, cis-5,6a,7,8,9,9a-Hexahydro-5-methyl-3-(4-chlorophenylmethyl)cyclopenta[4,5]imidazo[2,1-b]purin-4(3H)-one], the “SHR Antihypertensive Fall in MBP” value in test [1] (Dose 25 mpk) was 20 mmHg. Besides, the IC50 in test [2] stood at 3300 nM; in test [3], 400 nM.

For `CN1C(=O)c2c(ncn2CC2CCCCC2)N2C1=N[C@@H]1CCC[C@@H]12` (relative stereo) [Example 22, cis-5,6a,7,8,9,9a-Hexahydro-5-methyl-3-(cyclohexylmethyl)cyclopent[4,5]imidazo[2,1-b]purin-4(3H)-one], the “SHR Antihypertensive Fall in MBP” value in test [1] (Dose 25 mpk) was 15 mmHg. The IC50 in test [2] and in test [3] was 200 nM throughout.

For the compound `COC(=O)c1nc2c(n1Cc1ccccc1)C(=O)N(C)C1=N[C@@H]3CCC[C@@H]3N12` (relative stereo) [Example 28, cis-3,4,5,6a,7,8,9,9a-Octahydro-5-methyl-4-oxo-3-(phenylmethyl)cyclopent[4,5]imidazo[2,1-b]purin-2-carboxylic acid, methyl ester], the “SHR Antihypertensive Fall in MBP” value in test [1] (Dose 25 mpk) was 19 mmHg. Also, the half-inhibitory concentration (IC50) in test [2] and in test [3] was 200 nM throughout.

Consider `Cc1nc2c(n1Cc1ccccc1)C(=O)N(C)C1=NC34CCCC3CCC4N12` (single isomer, unassigned; (+)) [Example 39, (+) 6a,7,8,9,9a,10,11,11a-Octahydro-2,5-dimethyl-3-phenylmethyl-3H-pentaleno[6a',1':4,5]imidazo[2,1-b]purin-4(5H)-one], for which, in test [1] (Dose 25 mpk), the “SHR Antihypertensive Fall in MBP” value is listed as 40 mmHg. In addition, the IC50 in test [2] and in test [3] was 100 nM each time.

As for `Cc1nc2c([nH]1)C(=O)N(C)C1=NC34CCCC3CCC4N12.Cl` (single isomer, unassigned; (+)) [Example 41a, (+)-6a,7,8,9,9a,10,11,11a-Octahydro-2,5-dimethyl-3H-pentaleno[6a',1':4,5]imidazo[2,1-b]purin-4(5H)-one, hydrochloride], the “SHR Antihypertensive Fall in MBP” value came to 45 mmHg in test [1] (Dose 5 mpk), 52 mmHg in test [1] (Dose 10 mpk) and 67 mmHg in test [1] (Dose 25 mpk). The IC50 turned out to be 200 nM in test [2] and 100 nM in test [3].

As to `Cc1nc2c(n1Cc1ccccc1)C(=O)N(C)C1=N[C@@H]3CCC[C@@H]3N12` [Example 10, 5,6a(R),7,8,9,9a(S)-Hexahydro-2,5-dimethyl-3-(phenylmethyl)cyclopent[4,5]imidazo[2,1-b]purin-4(3H)-one], the “SHR Antihypertensive Fall in MBP” value in test [1] (Dose 25 mpk) turned out to be 45 mmHg. The IC50 in test [2] stood at 300 nM.

On to `Cc1nc2c([nH]1)C(=O)N(C)C1=N[C@@H]3CCC[C@@H]3N12` [Example 19a, cis-5,6a(R),7,8,9,9a(S)-Hexahydro-2,5-di-methylcyclopent[4,5]imidazo[2,1-b]purin-4(3H)-one], for which, in test [1] (Dose 25 mpk), the “SHR Antihypertensive Fall in MBP” value came out at 40 mmHg. The IC50 in test [2] was determined as 3000 nM; in test [3], 300 nM.

With `CN1C(=O)c2c(ncn2Cc2ccccc2)N2CC3(CCCC3)N=C12` [Example 34, 5'-Methyl-3'-(phenylmethyl)-spiro[cyclopentane-1,7'(8'H)-(3'H)-imidazo[2,1-b]purin]-4'(5'H)one], the “SHR Antihypertensive Fall in MBP” value in test [1] (Dose 25 mpk) came out at 40 mmHg. Further, the IC50 in test [2] and in test [3] was 100 nM each time.

For `Cc1nc2c(n1Cc1ccccc1)C(=O)N(C)C1=NC3(CCCC3)CN12` [Example 34a, 2',5'-Dimethyl-3'-(phenylmethyl)spiro[cyclopentane-1,7'(8'H)-(3'H)-imidazo[2,1-b]purin]-4'(5'H)one], the “SHR Antihypertensive Fall in MBP” value in test [1] (Dose 25 mpk) is 58 mmHg. Besides, the IC50 in test [2] came to 300 nM; in test [3], 800 nM.

For `CN1C(=O)c2c(ncn2Cc2ccccc2)N2C1=N[C@@H]1CCC[C@@H]12` [Example 35, cis-5,6a(R),7,8,9,9a(S)-Hexahydro-5-methyl-3-(phenylmethyl)cyclopent[4,5]imidazo[2,1-b]purin-4(3H)one], the “SHR Antihypertensive Fall in MBP” value in test [1] (Dose 25 mpk) stood at 41 mmHg. Further, the values for the IC50 in test [2] and in test [3] were 400 nM and 300 nM, respectively.
